Test results from PubChem BioAssay AID504443 (Sanford-Burnham Center for Chemical Genomics, 2011).
Activity calls are given as the source filed them. The rule behind the calls is not given here.

System: AML12 mouse hepatocytes, cytotoxicity
Assay: cytotoxicity in AML12 hepatocytes, SAR follow-up, cytotoxicity control, cell-based (AID 504443)

Row | SMILES | IC50
1 | COc1ccc(CNC(=O)c2cc3ccsc3n2C)cc1OC | > 10 µM (inactive)
2 | CCOc1ccc(CCNC(=O)CCC(=O)N2CCSc3ccccc32)cc1OCC | > 10 µM (inactive)
3 | CCOc1ccc(CCNC(=O)CSc2cc(=O)n(CC)c3ccccc23)cc1OCC | > 10 µM (inactive)
4 | CCOc1ccc(CCNC(=O)c2cc3sccc3n2CC)cc1OC | > 10 µM (inactive)
5 | CCn1c(C(=O)NCCc2ccc(OC)c(OC)c2)cc2ccsc21 | > 10 µM (inactive)
6 | CCOc1cc(CCNC(=O)c2cc3sccc3[nH]2)ccc1OC | > 10 µM (inactive)
7 | COc1ccc(CCNC(=O)c2cc3sccc3n2C)cc1OC | > 10 µM (inactive)
8 | COc1ccc(NC(=O)c2cc3ccsc3n2C)cc1OC | > 10 µM (inactive)
9 | COc1ccc(CCNC(=O)CSc2cc(=O)n(C)c3ccccc23)cc1OC | > 10 µM (inactive)
10 | CCn1c(C(=O)NCc2cc(OC)c(OC)c(OC)c2)cc2sccc21 | > 10 µM (inactive)
11 | CCOc1ccc(CCNC(=O)Cn2ncn3nc(-c4ccc(OC)cc4)cc3c2=O)cc1OCC | > 10 µM (inactive)
12 | CCOc1ccc(CCNC(=O)C2CC=CCC2C(=O)OC(C)C)cc1OCC (stereo not drawn) | > 10 µM (inactive)
13 | O=C(NCCc1ccc2c(c1)OCO2)c1cc2sccc2[nH]1 | > 10 µM (inactive)
14 | Cn1c(=O)cc(SCC(=O)Nc2ccc3c(c2)OCO3)c2ccccc21 | > 10 µM (inactive)
15 | CCOc1ccc(CCNC(=O)CCc2nnc3ccc(N4CCCC4)nn23)cc1OCC | > 10 µM (inactive)
16 | CCOc1ccc(CCNC(=O)CN2CCN(Cc3ccccc3C)C2=O)cc1OCC | > 10 µM (inactive)
17 | CCOc1cc(CCNC(=O)CSc2cc(=O)n(C)c3ccccc23)ccc1OC | > 10 µM (inactive)
18 | Cn1c(C(=O)Nc2ccc3c(c2)OCO3)cc2ccsc21 | > 10 µM (inactive)
19 | CCOc1cc(CCNC(=O)c2cc(-c3ccccc3)c(N3CCOCC3)s2)ccc1OC | > 10 µM (inactive)
20 | COc1cc(CNC(=O)CSc2cc(=O)n(C)c3ccccc23)cc(OC)c1OC | > 10 µM (inactive)
21 | CCn1c(C(=O)NCc2ccc3c(c2)OCO3)cc2sccc21 | > 10 µM (inactive)
22 | CCOc1ccc(CCNC(=O)CCC(=O)N2CCOc3ccc(C)cc32)cc1OCC | > 10 µM (inactive)
23 | CCOc1ccc(CCNC(=O)COc2cc(=O)n(C)c3ccccc23)cc1OCC | > 10 µM (inactive)
24 | COc1ccc(CNC(=O)CSc2cc(=O)n(C)c3ccccc23)cc1OC | > 10 µM (inactive)
25 | COc1ccc(CCNC(=O)c2cc3sc(Cl)cc3n2C)cc1OC | > 10 µM (inactive)
26 | CCOc1ccc(CCNC(=O)c2cc3ccsc3n2C)cc1OC | > 10 µM (inactive)

Row | SMILES | IC50
27 | CCOc1ccc(CCNC(=O)c2cc(-c3ccccc3)c(N3CCOCC3)s2)cc1OC | > 10 µM (inactive)
28 | CCn1c(C(=O)NCc2cc(OC)c(OC)c(OC)c2)cc2ccsc21 | > 10 µM (inactive)
29 | CCn1c(C(=O)NCc2ccc(OC)c(OC)c2)cc2ccsc21 | > 10 µM (inactive)
30 | CCn1c(C(=O)Nc2ccc(OC)c(OC)c2)cc2sccc21 | > 10 µM (inactive)
31 | CCOc1ccc(CCNC(=O)CSc2cc(=O)n(C)c3ccccc23)cc1OC | > 10 µM (inactive)
32 | Cn1c(C(=O)NCc2ccc3c(c2)OCO3)cc2ccsc21 | > 10 µM (inactive)
33 | CCOc1ccc(CCNC(=O)COC(=O)c2cc(OC)c(OC)c(OC)c2)cc1OCC | > 10 µM (inactive)
34 | CCOc1cc(CCNC(=O)c2cc3ccsc3n2C)ccc1OC | > 10 µM (inactive)
35 | COc1ccc(CNC(=O)c2cc(-c3ccccc3)c(N3CCOCC3)s2)cc1OC | > 10 µM (inactive)
36 | CCn1c(C(=O)Nc2ccc3c(c2)OCO3)cc2ccsc21 | > 10 µM (inactive)
37 | COc1ccc(CCNC(=O)c2cc(-c3ccccc3)c(N3CCOCC3)s2)c(OC)c1OC | > 10 µM (inactive)
38 | CCOc1ccc(CCNC(=O)c2nnc(Cc3ccc(F)cc3)o2)cc1OCC | > 10 µM (inactive)
39 | CCOc1cc(CCNC(=O)c2cc3ccccc3n2C)ccc1OC | > 10 µM (inactive)
40 | COc1ccc(CCNC(=O)c2cc(-c3ccccc3)c(N3CCOCC3)s2)cc1OC | > 10 µM (inactive)
41 | CCOc1ccc(CCNC(=O)CSc2cc(=O)n(C)c3ccccc23)cc1OCC | > 10 µM (inactive)
42 | CCOc1ccc(CCNC(=O)c2cc3sccc3n2C)cc1OCC | > 10 µM (inactive)
43 | CCOc1ccc(CCNC(=O)c2cc3ccsc3n2CC)cc1OC | > 10 µM (inactive)
44 | CCOc1ccc(CCNC(=O)c2cc3sccc3[nH]2)cc1OCC | > 10 µM (inactive)
45 | CCOc1cc(CCNC(=O)COc2cc(=O)n(C)c3ccccc23)ccc1OC | > 10 µM (inactive)
46 | COc1ccc(CCNC(=O)COC(=O)c2cc(OC)c(OC)cc2OC)cc1OC | > 10 µM (inactive)
47 | COc1ccc(CCNC(=O)Cn2cccc2C(=O)c2ccccc2C)cc1OC | > 10 µM (inactive)
48 | CCOc1ccc(CCNC(=O)CN2C(=O)c3cccnc3Oc3ccc(C)cc32)cc1OCC | > 10 µM (inactive)
49 | CCOc1ccc(CCNC(=O)CCC(=O)N2CCOc3ccccc32)cc1OCC | > 10 µM (inactive)
50 | Cn1c(C(=O)NCCc2ccc3c(c2)OCO3)cc2ccccc21 | > 10 µM (inactive)
51 | CCOc1ccc(CCNC(=O)Cn2cccc2C(=O)c2ccccc2C)cc1OCC | > 10 µM (inactive)
52 | CCOc1ccc(CCNC(=O)c2cc3sccc3n2CC)cc1OCC | > 10 µM (inactive)

Row | SMILES | IC50
53 | CCOc1ccc(CCNC(=O)CCOc2cc(C)ccc2C)cc1OCC | > 10 µM (inactive)
54 | CCn1c(C(=O)Nc2ccc3c(c2)OCO3)cc2sccc21 | > 10 µM (inactive)
55 | CCOc1ccc(CCNC(=O)c2cc3sc(Cl)cc3n2C)cc1OCC | > 10 µM (inactive)
56 | CCOc1cc(CCNC(=O)c2cc3sccc3n2CC)ccc1OC | > 10 µM (inactive)
57 | CCOc1ccc(CCNC(=O)c2cc3ccsc3n2C)cc1OCC | > 10 µM (inactive)
58 | CCOc1ccc(CCNC(=O)CSc2cc(=O)n(C)c3cc(Cl)ccc23)cc1OCC | > 10 µM (inactive)
59 | CCOc1ccc(CCNC(=O)CCc2nc(-c3ccc(OC)cc3)no2)cc1OCC | > 10 µM (inactive)
60 | CCOc1ccc(CCNC(=O)c2cc3ccsc3n2CC)cc1OCC | > 10 µM (inactive)
61 | COc1ccc(CNC(=O)c2ccc(N3CCOCC3)s2)cc1OC | > 10 µM (inactive)
62 | O=C(NCCc1ccc2c(c1)OCO2)c1ccc(N2CCOCC2)s1 | > 10 µM (inactive)
63 | CCOc1ccc(CCNC(=O)Cn2cccc2C(=O)c2ccccc2)cc1OCC | > 10 µM (inactive)
64 | CCOc1ccc(CCNC(=O)CCc2nnc3ccc(N4CCCCC4)nn23)cc1OCC | > 10 µM (inactive)
65 | CCOc1ccc(CCNC(=O)c2ccc(N3CCOCC3)s2)cc1OCC | > 10 µM (inactive)
66 | CCn1c(C(=O)NCCc2ccc(OC)c(OC)c2)cc2sc(Cl)cc21 | > 10 µM (inactive)
67 | COc1ccc(CCNC(=O)c2cc3ccccc3n2C)cc1OC | > 10 µM (inactive)
68 | COc1cc(CNC(=O)c2cc3ccsc3n2C)cc(OC)c1OC | > 10 µM (inactive)
69 | CCOc1ccc(CCNC(=O)c2cc(-c3ccccc3)c(N3CCOCC3)s2)cc1OCC | > 10 µM (inactive)
70 | O=C(NCCc1ccc2c(c1)OCO2)c1cc(-c2ccccc2)c(N2CCOCC2)s1 | > 10 µM (inactive)
71 | CCOc1ccc(CCNC(=O)Cn2nc(C)c3c(C)n(-c4ccccc4)nc3c2=O)cc1OCC | > 10 µM (inactive)
72 | CCOc1cc(CCNC(=O)c2ccc(N3CCOCC3)s2)ccc1OC | > 10 µM (inactive)
73 | CCOc1ccc(CCNC(=O)COC(=O)c2ccc(OC)c(OC)c2OC)cc1OCC | > 10 µM (inactive)
74 | CCOc1ccc(CCNC(=O)c2cc3ccccc3n2C)cc1OC | > 10 µM (inactive)
75 | Cn1c(=O)cc(SCC(=O)NCc2ccc3c(c2)OCO3)c2ccccc21 | > 10 µM (inactive)
76 | CCn1c(C(=O)Nc2ccc(OC)c(OC)c2)cc2ccsc21 | > 10 µM (inactive)
77 | CCOc1ccc(CCNC(=O)COC(=O)c2cc(OC)cc(OC)c2)cc1OCC | > 10 µM (inactive)
78 | Cn1c(=O)cc(SCC(=O)NCCc2ccc3c(c2)OCO3)c2ccccc21 | > 10 µM (inactive)
